Reference: patent US20240092756A1, “METHODS AND COMPOSITION FOR KRAS MODIFICATIONS” (2692372 ONTARIO, INC., priority 2020, published 2024)

What was measured:
KRAS G12C [1] = biological target: T1, KRAS G12C (Homo sapiens, UniProt P01116, G12C); test: SOS1-catalyzed KRAS coupled nucleotide exchange assay (Alpha technology); assay type: biochemical; set-up: His; key: A: KRAS G12C bound and modulated; details: inhibition of SOS1 mediated KRAS nucleotide exchange
In short: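 Alpha readout of c-RAF RBD binding to GTP-bound KRAS, normalized to DMSO. Method I: 20 nM GDP-KRAS G12C/C118A with compound 5 min, then 1.25 mM GTP + 500 nM SOS-1 30 min, pH 7.4 HEPES/MgCl2 buffer, 50 nM RBD. Method II: 50 nM GDP-KRAS G12C with compound 2 h, 1 mM GTP + 500 nM SOS-1 30 min, 2.5 nM GST-RBD; RT throughout.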

[2] = biological target: T2, KRAS G12C (SEQ ID NO:1 or SEQ ID NO:2) (Homo sapiens, UniProt P01116, G12C); test: Intact mass analysis (LC-MS) of covalent modification, KRAS G12C; assay type: binding; set-up: key to KRAS G12C Modification: b: KRAS G12C modified; details: intact mass spectrometry; covalent modification of KRAS G12C FL
T2 construct: purchased
Description: (§1) The covalent modification of the proteins with the compounds were evaluated using intact mass analysis by liquid chromatography-mass spectrometry instrument (LC-MS/MS).
(§2) The reaction solution (20 μL) was prepared in 96-well plate and contained the protein (2 μM), the compound (100 μM), HEPES buffer (20 mM, pH 8), 2% DMSO, 2% glycerol, and 150 mM NaCl. The reaction was allowed to proceed for 24 h at 25° C. The reaction solution (1 μL) was injected into the LC/MS/MS without any further sample preparation.
(§3) The LC-MS/MS instrument comprises of a Waters G2-XS quadrupole-time of flight (QTof) mass spectrometer and a Waters Acuity I-class Ultra-High Performance Liquid Chromatography (UPLC) system. The I-class UPLC system includes a binary solvent manager (BSM), and an Acquity sample manager (SM). The mobile phase consisted of: A) 0.1% (v/v) formic acid in MilliQ water; B) 0.1% (v/v) formic acid acetonitrile. Gradients were run over 5 min and proceeded as follows: A:B, 85:15, 0.0-0.7 min, 85:15→15:85, 0.7-1.5 min, 10:90, 1.5-4 min, 10:90→85:15, 4-4.5 min, 85:15, 4.5-5 min. The analytical column was a Waters BEH C4 column 1.7 μm (50×1 mm) column with pore sizes of 300 Å. The TOF MS data was collected in positive ion mode (m/z of 400-2000 Da) using MassLynx software (Waters).
(§4) The spectral deconvolution was performed using UNIFI software (Waters). The added mass of the protein upon covalent modification to cysteine residues were specified. Multiple modification of up to 8 cysteine was allowed. All the adducts with signal intensities of <2% of the base peak were ignored. The % modification was calculated as the adduct signal intensity over the total intensities of the protein peaks and the adducts.

[3] = biological target: KRAS G12C Lite (SEQ ID NO:3) (Homo sapiens, UniProt P01116, C118S/C51S/C80S/G12C/S136P/S39C); test: Intact mass analysis (LC-MS) of covalent modification, KRAS G12C Lite; assay type: binding; set-up: key to KRAS Lite Modification: a: KRAS Lite modified; details: intact mass spectrometry; covalent modification of KRAS G12C Lite
Description: as §1, §2, §3, §4

KRAS G12C [4] = biological target: T1, KRAS G12C; test: Differential scanning fluorimetry, KRAS G12C; assay type: binding; set-up: purchased; key: Y: protein destabilized; N: protein not destabilized; details: 37° C. 5 hours incubation
Description: (§5) KRas proteins at 0.05 mg/ml in buffer Hepes, 147 mM NaCl, 2% glycerol, 5 mM MgCl2, 1 mM EDTA, 10 μM GDP, pH 8.0 were incubated in the presence desired concentration of compounds (5% DMSO final concentration) at 37° C. for 5 hours. After incubation, Sypro Oange to a final concentration of 5× was added to each sample. 20 μl aliquots of samples were transferred PCR tubes, sealed with caps, and run in a BioRad CFX96 RTPCR thermocycler. In the instrument, the samples were heated at a rate of 1° C./min from 25 to 90 degrees. Fluorescence readings were taken every 1 degree. The data generated was exported and analyzed using GraphPad-Prism software. The denaturation curves were fit using a Boltzmann sigmoidal equation to calculate melting temperatures (Tm).

KRAS G12C Lite = KRAS G12C Lite (Homo sapiens, UniProt P01116, C118S/C51S/C80S/G12C/S136P/S39C); test: Differential scanning fluorimetry, KRAS G12C Lite; assay type: binding; set-up: key: Y: protein destabilized; N: protein not destabilized; details: 37° C. 5 hours incubation
Description: as §5

| KRAS-SOS1 Nucleotide Exchange (KRAS G12C [1]) | KRAS G12C Modification [2] | KRAS Lite Modification [3] | KRAS G12C DSF ΔTm (KRAS G12C [4]) | KRAS G12C Lite DSF ΔTm (KRAS G12C Lite) | SMILES |
| --- | --- | --- | --- | --- | --- |
| A | b | a | Y | Y | Cc1ccnc(C(C)C)c1-n1c(=O)nc(N2CC(NS(=O)(=O)c3c(F)c(F)c(F)c(F)c3C(F)(F)F)C2)c2cc(F)c(Cl)nc21 [Compound 13A, N-(1-(7-chloro-6-fluoro-1-(2-isopropyl-4-methylpyridin-3-yl)-2-oxo-1,2-dihydropyrido[2,3-d]pyrimidin-4-yl)azetidin-3-yl)-2,3,4,5-tetrafluoro-6-(trifluoromethyl)benzenesulfonamide] |
| A | b | a | Y | Y | Cc1ccnc(C(C)C)c1-n1c(=O)nc(N2CCN(S(=O)(=O)c3c(F)c(F)c(F)c(F)c3OC(F)F)C[C@@H]2C)c2cc(F)c(Cl)nc21 [Compound 12A, (S)-7-chloro-4-(4-((2-(difluoromethoxy)-3,4,5,6-tetrafluorophenyl)sulfonyl)-2-methylpiperazin-1-yl)-6-fluoro-1-(2-isopropyl-4-methylpyridin-3-yl)pyrido[2,3-d]pyrimidin-2(1H)-one] |
